Laboratory results from US5648368A, “Fibrinogen receptor antagonists” (Merck & Co., Inc., priority 1995, dated 1997).

Tested on: cell attachment-promoting effects of fibronectin and vitronectin
Experiment: not given
Settings: background statement; cited from earlier work
For “arginine-glycine-aspartic acid [Arg-Gly-Asp]”, the “activity of the tripeptide Arg-Gly-Asp” value is given as “low activity”.

Tested on: gpIIb/IIIa complex
Experiment: not given
Settings: snake venom polypeptides; literature; cited from earlier work
For Echistatin, the “affinity for the gpIIb/IIIa complex” value is listed as “high affinity”.

Tested on: gel-filtered human platelets
Experiment: ADP-stimulated/ADP-mediated platelet aggregation inhibition (Chronolog aggregometer)
Format: cell-based
Settings: Homo sapiens, Platelet; table 2; "Using the methods previously described"; read-out: IC50 (μM) Inhibition of Platelet Aggregation
Protocol: Platelet aggregation is measured at 37° C. in a Chronolog aggregometer. The reaction mixture contains gel-filtered human platelets (2×10^8 per ml), fibrinogen (100 micrograms per ml (ug/ml)), Ca^2 + (1 mM), and the compound to be tested. The aggregation is initiated by adding 10 μM ADP 1 minute after the other components are added. The reaction is then allowed to proceed for at least 2 minutes. The extent of inhibition of aggregation is expressed as the percentage of the rate of aggregation observed in the absence of inhibitor. The IC50 is the dose of a particular compound inhibiting aggregation by 50% relative to a control lacking the compound.
In addition to the following preparative procedures, several examples of in-vitro bioactivity of compounds within the scope of the present invention are indicated. To illustrate, one test which is used to evaluate fibrinogen receptor antagonist activity is based on evaluation of inhibition of ADP-stimulated platelets. Aggregation requires that fibrinogen bind to and occupy the platelet fibrinogen receptor site. Inhibitors of fibrinogen binding inhibit aggregation. In the ADP-stimulated platelet aggregation assay used to determine inhibition associated with the compounds claimed in the instant invention, human platelets are isolated from fresh blood, collected into acid citrate/dextrose by differential centrifugation followed by gel filtration on Sepharose 2B in divalent ion-free Tyrode's buffer (pH 7.4) containing 2% bovine serum albumin. [drawing 11]
CCCCS(=O)(=O)N[C@@H](CNC(=O)c1cc(C(=O)NCCC2CCNCC2)ccc1C)C(=O)O gave an IC50 of 0.15 µM. Work on O=C(NC[C@H](NS(=O)(=O)c1ccccc1)C(=O)O)c1cccc(OCCCC2CCNCC2)c1 yielded an IC50 of 0.056 µM. For O=C(NC[C@H](NS(=O)(=O)c1ccccc1)C(=O)O)c1ccc(S(=O)(=O)CCC2CCNCC2)cc1, the IC50 was 0.019 µM. For CCCCS(=O)(=O)N[C@@H](CNC(=O)c1cncc(C(=O)NCCC2CCNCC2)c1)C(=O)O, the IC50 was 0.11 µM. Compound O=C(NC[C@H](NS(=O)(=O)c1ccccc1)C(=O)O)c1ccc(OCCC2CNC2)cc1 has an IC50 of 0.017 µM. In the case of O=C(NC[C@H](NS(=O)(=O)c1ccccc1)C(=O)O)c1ccc(OCCCC2CNC2)cc1, the IC50 is reported as 0.01 µM. O=C(NC[C@H](NS(=O)(=O)c1ccccc1)C(=O)O)c1ccc(NCCC2CCNCC2)cc1 showed an IC50 of 0.009 µM. O=C(NCCC1CCNCC1)c1ccc(C(=O)NC[C@H](NS(=O)(=O)c2cccnc2)C(=O)O)cc1 showed an IC50 of 0.017 µM. O=C(NC[C@H](NS(=O)(=O)c1ccccc1)C(=O)O)c1ccc(OCCN2CCNCC2)cc1 gave an IC50 of 0.023 µM. Work on Cc1ccc(C(=O)NCCC2CCNCC2)cc1C(=O)NCCC(=O)O yielded an IC50 of 0.45 µM. Work on O=C(O)CCNC(=O)c1cc(C(=O)NCCC2CCNCC2)ccn1 yielded an IC50 of 1.1 µM. In the case of CCCCS(=O)(=O)N[C@@H](CNC(=O)c1cccc(C(=O)N(C)CCC2CCNCC2)c1)C(=O)O, the IC50 is reported as 0.023 µM. Compound CCCCS(=O)(=O)N[C@@H](CNC(=O)c1ccc(C(=O)NCCC2CCNCC2)cc1)C(=O)O has an IC50 of 0.02 µM. O=C(NC[C@H](NS(=O)(=O)c1cccnc1)C(=O)O)c1ccc(OCCC2CCNCC2)cc1 showed an IC50 of 0.009 µM. With CCCCS(=O)(=O)N[C@@H](CNC(=O)c1ccc(C(=O)NCC2CCNCC2)cc1)C(=O)O the IC50 was 0.14 µM. For O=C(O)CCNC(=O)c1ccnc(C(=O)NCCC2CCNCC2)c1, the IC50 was 1.6 µM. O=C(NCCCC1CCNCC1)c1ccc(C(=O)NC[C@H](NS(=O)(=O)c2cccnc2)C(=O)O)cc1 gave an IC50 of 0.052 µM.

Same assay, conditions: Platelet; gel-filtered human platelets 2×10^8 per ml, fibrinogen 100 ug/ml, Ca2+ 1 mM, 10 μM ADP, 37° C.; table 1; read-out: IC50 for inhibition of ADP-mediated platelet aggregation
O=C(O)CCNC(=O)CCc1ccc(C2=CCNCC2)cc1 [4-(1,2,5,6-Tetrahydropyridin-4-yl)phenyl-3-propionyl-β-alanine] showed an IC50 of 1.7 µM. O=C(NC[C@H](NS(=O)(=O)c1ccccc1)C(=O)O)c1ccc(OCCC2CCNCC2)cc1 [4-[2-(Piperidin-4-yl)ethoxy]benzoyl-2(S)-phenylsulfonylamino-β-alanine] showed an IC50 of 0.014 µM. Work on CC(CC(=O)NCCC(=O)O)c1ccc(C2=CCNCC2)cc1 (stereo not drawn) [3-[4-(1,2,5,6-Tetrahydropyridin-4-yl)phenyl]butyryl-β-alanine] yielded an IC50 of 1.3 µM. In the case of O=C(O)CCNC(=O)CCc1ccc(C2CCNCC2)cc1 [4-(Piperidin-4-yl)phenyl-3-propionyl-β-alanine], the IC50 is reported as 11 µM. With O=C(O)CCNC(=O)CCc1cccc(CC2CCNCC2)c1 [3-[3-(Piperidin-4-ylmethyl)phenyl]propionyl-β-alanine] the IC50 was 170 µM. Work on CCCCS(=O)(=O)N[C@@H](CNC(=O)CCc1ccc(C2CCNCC2)cc1)C(=O)O [4-(Piperidin-4-yl)phenyl-3-propionyl-[2(S)-n-butyl-sulfonylamino]-β-alanine] yielded an IC50 of 0.1 µM. Compound O=C(O)CCNC(=O)Cc1cccc(OCC2CCNCC2)c1 [3-[(4-Piperidinyl)methyloxy]-N-(2-carboxyethyl)phenyl Acetamide] has an IC50 of 56 µM. For CCCCS(=O)(=O)N[C@@H](CNC(=O)CCc1ccc(C2=CCNCC2)cc1)C(=O)O [4-(1,2,5,6-Tetrahydropyridin-4-yl)phenyl-3-propionyl-[2(S)-n-butylsulfonylamino]-β-alanine], the IC50 was 0.022 µM.

Same assay, conditions: gel-filtered human platelets 2×10^8 per ml, fibrinogen 100 ug/ml, Ca2+ 1 mM, 10 μM ADP, 37° C.; table 1; read-out: IC50 for inhibition of ADP-mediated platelet aggregation
O=C(O)CC(CCc1c[nH]c2ccccc12)NC(=O)Cc1cccc(OCC2CCNCC2)c1 (centres unmarked) [3-[(4-Piperidinyl)methyloxy]-N-[3-(2-indol-3-yl)ethyl Propionic Acid]-phenyl Acetamide] gave an IC50 of 5.2 µM. CCCCS(=O)(=O)N[C@@H](Cc1ccc(NC(=O)CCCC2CCNCC2)cc1)C(=O)O [4-(4-Piperidin-4-yl)-N-3[2(S)-n-butylsulfonylaminopropionic acid]-phenylbutyramide] gave an IC50 of 0.095 µM.
